The term IC50 denotes the concentration needed to halve the response being measured. By EC50 is commonly meant the concentration that produces a half-maximal response.

Read-outs that look alike come from different tables or passages of the source.

The subject of test [1] is TLR2 induced IL-6 in peripheral blood mononuclear cells (PBMCs). Kind of test: PBMC TLR2 Induced IL-6 Assay. In kind it is cell-based, human. The note with it: human PBMCs, 10 μg/ml lipoteichoic acid for 5 hours, IL-6 by ELISA; for IC50: value without asterisk, read-out: Cell IC50; for EC50: EC50 determinations are indicated with an asterisk, read-out: Cell EC50 (asterisk). Put shortly: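 IL-6 ELISA of supernatants after a 5 h challenge with the TLR2 agonist lipoteichoic acid (10 μg/ml). Before stimulation, human PBMCs (250000 cells/well; RPMI, 10% heat-inactivated FCS) received compound for 30 min at 37° C. Values given as IC50 or EC50.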

The target in test [2] is IRAK4 (Homo sapiens (Human), UniProt Q9NWZ3). Kind of test: IRAK4 Inhibition Assay. In kind it is biochemical. The following applies: ATP 500 μM; IRAK4 0.6 nM; 60 min at room temperature. The procedure: The assays were performed in U-bottom 384-well plates. […] The reaction was initiated by the combination of IRAK4 with substrates and test compounds. The reaction was incubated at room temperature for 60 min. and terminated by adding 45 μL of 35 mM EDTA to each sample. The reaction mixture was analyzed on the Caliper LABCHIP® 3000 (Caliper, Hopkinton, Mass.) by electrophoretic separation of the fluorescent substrate and phosphorylated product.
IRAK4, sequence (Q9NWZ3 whole entry, species assumed): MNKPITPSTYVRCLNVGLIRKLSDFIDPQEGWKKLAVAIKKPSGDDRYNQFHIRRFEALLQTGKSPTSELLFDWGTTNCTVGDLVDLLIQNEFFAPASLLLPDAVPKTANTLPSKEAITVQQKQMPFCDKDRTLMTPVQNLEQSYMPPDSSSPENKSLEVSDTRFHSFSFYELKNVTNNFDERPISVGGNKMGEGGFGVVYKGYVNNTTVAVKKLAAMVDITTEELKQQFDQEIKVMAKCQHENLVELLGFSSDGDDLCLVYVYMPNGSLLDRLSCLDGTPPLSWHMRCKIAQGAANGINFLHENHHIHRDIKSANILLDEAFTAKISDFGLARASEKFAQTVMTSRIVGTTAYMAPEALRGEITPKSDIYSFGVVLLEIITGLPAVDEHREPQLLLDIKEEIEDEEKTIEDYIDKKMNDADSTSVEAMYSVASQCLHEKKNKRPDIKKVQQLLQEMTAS

Regarding `CC(C)(O)[C@H](F)CNC(=O)c1cnc(Nc2ccc3ncc(F)cc3n2)cc1NC1CCOCC1` [Example 428], the IC50 in test [1] (Homo sapiens, PBMC, 5 h) came to 0.052 µM; in test [2] it was 0.002 µM.
For `CC(C)Nc1cc(Nc2ccn3ncc(C#N)c3n2)ncc1C(=O)NC[C@@H](F)C(C)(C)O` [Example 261] the same measures were 0.126 µM and 0.0036 µM.
On to `CC(C)Nc1cc(Nc2ccc3ncsc3n2)ncc1C(=O)NCC(F)(F)C(C)(C)O` [Example 313], for which the IC50 in test [1] (Homo sapiens, PBMC, 5 h) came out at 0.073 µM; in test [2] it was 0.0034 µM.
For `CC(C)(O)[C@H](F)CNC(=O)c1cnc(Nc2ccc3nonc3c2)cc1N[C@@H]1CCCC1F` (some centres unmarked) [Example 356] the same measures were 0.281 µM and 0.003 µM.
Consider `CC(C)Nc1cc(Nc2ccc3ncsc3c2)ncc1C(=O)NCC[C@@H](C)NC(=O)CC1CCCOC1` (some centres unmarked) [Example 194], for which the IC50 in test [1] (Homo sapiens, PBMC, 5 h) worked out at 0.208 µM; in test [2] it was 0.0025 µM.
For the compound `CC(C)(O)[C@H](F)CNC(=O)c1cnc(Nc2ccn3nccc3n2)cc1NC1COCCC1F` (some centres unmarked) [Example 256], the IC50 worked out at 0.587 µM in test [1] (Homo sapiens, PBMC, 5 h) and 0.0088 µM in test [2].
As for `CC(C)(O)[C@H](F)CNC(=O)c1cnc(Nc2ccc3ncsc3c2)cc1NC1CCCOC1` (some centres unmarked) [Example 54], the figures for the 50% inhibitory concentration (IC50) in test [1] and in test [2] were 0.258 µM and 0.0036 µM, respectively.
For the compound `CC(C)Nc1cc(Nc2ccc3ncsc3c2)ncc1C(=O)NC1CCC2(CC1)NC(=O)NC2=O` (centres unmarked) [Example 525, 6-(benzo[d]thiazol-6-ylamino)-N-(2,4-dioxo-1,3-diazaspiro[4.5]decan-8-yl)-4-(isopropylamino)nicotinamide], the EC50 in test [1] (Homo sapiens, PBMC, 5 h) is 0.131 µM. Also, the half-inhibitory concentration (IC50) in test [2] is 0.0015 µM.
On to `CC(C)Nc1cc(Nc2ccc3ncsc3c2)ncc1C(=O)NC1CCc2[nH]ncc2C1` (centres unmarked) [Example 494], for which the EC50 in test [1] (Homo sapiens, PBMC, 5 h) is 0.209 µM. Besides, in test [2], the IC50 came to 0.0085 µM.
On to `CCC(O)(CC)[C@H](F)CNC(=O)c1cnc(Nc2ccn3nccc3n2)cc1NCC(C)(C)F` [Example 389], for which the IC50 was found to be 0.574 µM in test [1] (Homo sapiens, PBMC, 5 h) and 0.0104 µM in test [2].
For `CC(C)(O)[C@H](F)CNC(=O)c1cnc(Nc2ccn3nccc3c2)cc1NC1CCOCC1F` (some centres unmarked) [Example 298] the same measures were 0.596 µM and 0.0079 µM.
For `CC(=O)N[C@H]1CC[C@H](NC(=O)c2cnc(Nc3ccc4ncsc4c3)cc2NC(C)C)CC1` [Example 200] the same measures were 0.094 µM and 0.0022 µM.
Regarding `CC(C)Nc1cc(Nc2ccc3ncsc3c2)ncc1C(=O)N[C@H]1CC[C@H](C(=O)NC23CC4CC(CC(O)(C4)C2)C3)CC1` [Example 214], the IC50 in test [1] (Homo sapiens, PBMC, 5 h) was determined as 0.371 µM; in test [2], 0.0067 µM.

These data come from patent US9546153B2, “Bicyclic heterocycle substituted pyridyl compounds useful as kinase modulators” (BRISTOL-MYERS SQUIBB COMPANY, priority 2012, dated 2017).
